Reference: US5266596A, “L- or DL-threo-3-(3,4-dihydroxyphenyl)serine for the treatment of urinary incontinence” (priority 1991, dated 1993)

How the values were obtained:
[1] = tested on: patients with urinary incontinence; test: Clinical test of L-threo-DOPS in patients with urinary incontinence (clinical effect and side effects); assay type: in vivo, human
Method: L-Threo-DOPS was administered (100 mg×3 times, a 4 weeks) to 13 patients with urinary incontinence in the clinic of urology. For estimating the effect on urinary incontinence and side effects, the patients were investigated medically before and after the treatment with L-Threo-Dops. […] Further, by urodynamic study, the patients were classified into urgent urinary incontinence (7 patients), stress urinary incontinence (3 patients) and other condition (3 patients).

urinary bladder = test: Inner pressure of urinary bladder and urethra measured before and after administration (urodynamics); assay type: in vivo, human; conditions: some cases
Method: L-Threo-DOPS was administered (100 mg×3 times, a 4 weeks) to 13 patients with urinary incontinence in the clinic of urology. For estimating the effect on urinary incontinence and side effects, the patients were investigated medically before and after the treatment with L-Threo-Dops. The patients were 6 males and 7 females in the range of 35 to 76 years old, and were 51.8 years old in average. Further, by urodynamic study, the patients were classified into urgent urinary incontinence (7 patients), stress urinary incontinence (3 patients) and other condition (3 patients).

[2] = tested on: aromatic L-amino acid decarboxylase; conditions: cited from earlier work
Harmalin-induced tremor = conditions: in vivo; cited from earlier work
[3] = Acute toxicity (LD50) in mouse; conditions: in vivo
[4] = in vivo; cited from earlier work
circulating system = conditions: cited from earlier work
patients = conditions: conventional use; cited from earlier work
[5] = all 13 patients, 100 mg×3 times, 4 weeks
[6] = all of the cases, summary statement

Question: For `N[C@H](C(=O)O)[C@H](O)c1ccc(O)c(O)c1` [L-threo-DOPS, L-threo-3-(3,4-dihydroxyphenyl)serine], which Side effect ([1]; Case 1, 300 mg/day × 4 weeks) is on record?
Answer: The Side effect was “None”.

Question: And the Side effect ([1]; Case 2, 300 mg/day × 4 weeks)?
Answer: The Side effect was “None”.

Question: What about the Side effect ([1]; Case 3, 300 mg/day × 4 weeks) of the same compound?
Answer: The Side effect was “None”.

Question: And the Side effect ([1]; Case 4, 300 mg/day × 4 weeks)?
Answer: Its Side effect is “None”.

Question: And the Side effect ([1]; Case 5, 300 mg (3) × 4 weeks)?
Answer: The Side effect was “None”.

Question: What about the Side effect ([1]; Case 6, 300 mg (3) × 4 weeks) of the same compound?
Answer: Its Side effect is “None”.

Question: What about the Side effect ([1]; Case 7, 300 mg (3) × 4 weeks) of the same compound?
Answer: The Side effect was “None”.

Question: What about the Clinical effect ([1]; Case 7, urgent urinary incontinence, 300 mg (3) × 4 weeks) of the same compound?
Answer: Its Clinical effect is “improved”.

Question: What about the Side effect ([1]; Case 8, 300 mg (3) × 4 weeks) of the same compound?
Answer: Its Side effect is “None”.

Question: What about the Clinical effect ([1]; Case 8, stress incontinence, 300 mg (3) × 4 weeks) of the same compound?
Answer: Its Clinical effect is “improved”.

Question: What about the Side effect ([1]; Case 9, 300 mg/day × 4 weeks) of the same compound?
Answer: Its Side effect is “None”.

Question: And the Clinical effect ([1]; Case 9, stress incontinence, 300 mg/day × 4 weeks)?
Answer: The Clinical effect was “Improved”.

Question: And the Side effect ([1]; Case 10, 300 mg/day × 4 weeks)?
Answer: The Side effect was “None”.

Question: What about the Side effect ([1]; Case 11, 300 mg/day × 4 weeks) of the same compound?
Answer: The Side effect was “None”.

Question: What about the Side effect ([1]; Case 12, 300 mg/day × 4 weeks) of the same compound?
Answer: Its Side effect is “None”.

Question: And the Side effect ([1]; Case 13, 300 mg/day × 4 weeks)?
Answer: Its Side effect is “None”.

Question: And the Clinical effect ([1]; Case 13, Enuresis, 300 mg/day × 4 weeks)?
Answer: Its Clinical effect is “Improved”.

Question: And the “Cases with disappearance of the symptoms or improvement to a moderate degree or more, total” value [1, 5]?
Answer: Its value is 9 cases.

Question: What about the “Remaining cases in which L-threo-DOPS was almost ineffective” value [1, 5] of the same compound?
Answer: Its value is 4 cases.

Question: And the “Side effects such as urine discharge disturbance, palpitation and hypertension” value ([1]; all cases, 100 mg×3 times, 4 weeks)?
Answer: Its value is “not noted”.

Question: What about the Side effects [1, 6] of the same compound?
Answer: Its Side effects is “no side effects were noted”.

Question: And the Tendency of dysuria [1, 6]?
Answer: The Tendency of dysuria was “even tendency of dysuria was not noted”.

Question: And the “Cases with clinical effect of more than a slight improvement” value ([1]; all patients, 100 mg×3 times, 4 weeks)?
Answer: The value was 10 out of 13.

Question: And the “Cases with disappearance of the symptoms or improvement to a moderate degree or more” value ([1]; other condition, 100 mg×3 times, 4 weeks)?
Answer: The value was 2 out of 3.

Question: What about the Patient satisfaction ([1]; patients improved, 100 mg×3 times, 4 weeks) of the same compound?
Answer: Its Patient satisfaction is “highly satisfactory”.

Question: And the “Cases with disappearance of the symptoms or improvement to a moderate degree or more” value ([1]; stress urinary incontinence, 100 mg×3 times, 4 weeks)?
Answer: The value was 2 out of 3.

Question: What about the “Effect on urinary incontinence” value ([1]; summary statement) of the same compound?
Answer: The value was “excellent effect on urinary incontinence”.

Question: And the “Cases with disappearance of the symptoms or improvement to a moderate degree or more” value ([1]; urgent urinary incontinence, 100 mg×3 times, 4 weeks)?
Answer: The value was 5 out of 7.

Question: And the “Volume of the urinary bladder” value (urinary bladder)?
Answer: The value was “increased volume of the urinary bladder was confirmed”.

Question: And the “Decarboxylation by aromatic L-amino acid decarboxylase to natural 1-noradrenaline” value [2]?
Answer: The value was “undergo decarboxylation by the action of aromatic L-amino acid decarboxylase to produce natural 1-noradrenaline”.

Question: What about the “Action on Harmalin-induced tremor” value (Harmalin-induced tremor) of the same compound?
Answer: Its value is “inhibitory action on Harmalin-induced tremor”.

Question: Which results are given for `N[C@H](C(=O)O)[C@H](O)c1ccc(O)c(O)c1` (relative stereo) [active ingredient, DL- or L-threo-3-(3,4-dihydroxyphenyl)serine]?
Answer: LD50 ([3]; ip, intraperitoneal): ~10000 mg/kg; LD50 ([3]; oral): ≥ 10000 mg/kg

Question: Which results are given for `N[C@H](C(=O)O)[C@H](O)c1ccc(O)c(O)c1` (relative stereo) [DL- or L-threo-DOPS, DL- or L-threo-3-(3,4-dihydroxyphenyl)serine]?
Answer: Conversion into 1-NA after administration [4]: gradually converted into 1-NA; Distribution after administration [4]: distributed both centrally and peripherally

Question: With `NC[C@H](O)c1ccc(O)c(O)c1` [1-NA, 1-noradrenaline] as the compound, how does the Duration (circulating system; after injection) read?
Answer: Its Duration is “shorter, rather instantaneous”.

Question: And the “Effects on circulating system” value (circulating system; immediately after injection)?
Answer: Its value is “drastic effects on circulating system to cause hypertension and palpitation”.

Question: With `CN(C)CCCN1c2ccccc2CCc2ccccc21` [Imipramine] as the compound, how does the Side effects (patients) read?
Answer: The Side effects was “side effects such as thirst, constipation and nasal obstruction”.
